Molecular target: T1, Human CB1 receptor (hCB1) (Homo sapiens, UniProt P21554)
T1 construct: purchased Receptor Biology
Test: hCB1 GTPγS binding
Assay type: biochemical
Conditions: for EC50: hCB1 membranes, GTPγ35S, 10-point dose-response; for Emax / hCB1 EMax: maximal stimulated binding determined with 10 μM Win 55,212-2
Description: hCB1 and hCB2 GTPγS Binding
Human CB1 receptor from Receptor Biology (hCB1) or human CB2 receptor membranes (BioSignal) are thawed at 37° C., passed 3 times through a 25-gauge blunt-end needle and diluted in the GTPγS binding buffer (50 mM Hepes, 20 mM NaOH, 100 mM NaCl, 1 mM EDTA, 5 mM MgCl2, pH 7.4, 0.1% BSA). […] The basal and maximal stimulated binding is determined in absence and presence of 1 μM (hCB2) or 10 μM (hCB1) Win 55, 212-2 respectively. The membranes are pre-incubated for 5 minutes with 56.25 μM (hCB2) or 112.5 μM (hCB1) GDP prior to distribution in plates (15 μM (hCB2) or 30 μM (hCB1) GDP final). The plates are vortexed and incubated for 60 minutes at room temperature, filtered on Unifilters GF/B (presoaked in water) with the Tomtec or Packard harvester using 3 ml of wash buffer (50 mM Tris, 5 mM MgCl2, 50 mM NaCl, pH 7.0). The filters are dried for 1 hour at 55° C. The radioactivity (cpm) is counted in a TopCount (Packard) after adding 65 μl/well of MS-20 scintillation liquid. Antagonist reversal studies are done in the same way except that (a) an agonist dose-response curve is done in the presence of a constant concentration of antagonist, or (b) an antagonist dose-response curve is done in the presence of a constant concentration of agonist.

T1 sequence (P21554 whole entry): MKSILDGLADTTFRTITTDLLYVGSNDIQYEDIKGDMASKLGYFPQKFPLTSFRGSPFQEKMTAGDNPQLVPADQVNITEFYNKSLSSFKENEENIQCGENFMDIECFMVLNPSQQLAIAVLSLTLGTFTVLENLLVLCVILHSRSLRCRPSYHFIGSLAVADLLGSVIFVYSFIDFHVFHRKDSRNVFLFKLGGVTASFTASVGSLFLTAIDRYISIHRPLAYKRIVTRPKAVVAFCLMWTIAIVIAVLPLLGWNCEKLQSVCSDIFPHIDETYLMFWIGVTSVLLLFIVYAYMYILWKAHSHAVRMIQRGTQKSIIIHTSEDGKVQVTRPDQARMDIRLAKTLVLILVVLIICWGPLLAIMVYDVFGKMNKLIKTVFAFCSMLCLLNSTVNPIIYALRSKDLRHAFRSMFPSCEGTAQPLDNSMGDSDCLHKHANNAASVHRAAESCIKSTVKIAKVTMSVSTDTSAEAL

Structure (SMILES)	EC50 [µM]	Emax [%]	hCB1 EMax [%]
CCNC(=O)CN(CC)C(=O)c1ccc2c(c1)c1c(n2CC(=O)N(CC)CC)CCC(C2CCOCC2)C1 (centres unmarked) [9-(diethylcarbamoylmethyl)-N-ethyl-N-(ethylcarbamoylmethyl)-6-(oxan-4-yl)-5,6,7,8-tetrahydrocarbazole-3-carboxamide]	> 10	> 87	
CCS(=O)(=O)n1c2c(c3cc(C(=O)N4CCC[C@@H]4C(=O)NCCF)ccc31)CC(C1CCOCC1)CC2 (stereo partly drawn) [(2R)-1-[9-ethylsulfonyl-6-(oxan-4-yl)5,6,7,8-tetrahydrocarbazole-3-carbonyl]-N-(2-fluoroethyl)pyrrolidine-2-carboxamide]	1.7	> 107	
Cn1c2c(c3cc(C(=O)N4CCC[C@H](C(=O)NC5CC5)C4)ccc31)CC(C1CCOCC1)CC2 (stereo partly drawn) [(3S)—N-cyclopropyl-1-[9-methyl-6-(oxan-4-yl)5,6,7,8-tetrahydrocarbazole-3-carbonyl]piperidine-3-carboxamide]		118	
Cn1c2c(c3cc(C(=O)N4CC[C@H](C(=O)NC5CC5)C4)ccc31)CC(C1CCOCC1)CC2 (stereo partly drawn) [(3S)—N-cyclopropyl-1-[9-methyl-6-(oxan-4-yl)5,6,7,8-tetrahydrocarbazole-3-carbonyl]pyrrolidine-3-carboxamide]		134	
CN(CCCC(=O)Nn1cccc1)C(=O)c1ccc2c(c1)c1c(n2C)CC[C@@H](C2CCOCC2)C1 [(R)—N-(4-(1H-Pyrrol-1-ylamino)-4-oxobutyl)-N,9-dimethyl-3-(tetrahydro-2H-pyran-4-yl)-2,3,4,9-tetrahydro-1H-carbazole-6-carboxamide]	1.05	89	
CN(C)NC(=O)CCCN(C)C(=O)c1ccc2c(c1)c1c(n2C)CC[C@@H](C2CCOCC2)C1 [(R)—N-(4-(2,2-Dimethylhydrazinyl)-4-oxobutyl)-N,9-dimethyl-3-(tetrahydro-2H-pyran-4-yl)-2,3,4,9-tetrahydro-1H-carbazole-6-carboxamide]	0.917	96	
COCCNC(=O)CCCN(C)C(=O)c1ccc2c(c1)c1c(n2C)CC[C@@H](C2CCOCC2)C1 [(R)—N-(4-(2-Methoxyethylamino)-4-oxobutyl)-N,9-dimethyl-3-(tetrahydro-2H-pyran-4-yl)-2,3,4,9-tetrahydro-1H-carbazole-6-carboxamide]	1.21	93	
CN(CCCC(=O)NCC#N)C(=O)c1ccc2c(c1)c1c(n2C)CC[C@@H](C2CCOCC2)C1 [(R)—N-(4-(Cyanomethylamino)-4-oxobutyl)-N,9-dimethyl-3-(tetrahydro-2H-pyran-4-yl)-2,3,4,9-tetrahydro-1H-carbazole-6-carboxamide]	0.071	110	
CONC(=O)CCCN(C)C(=O)c1ccc2c(c1)c1c(n2C)CC[C@@H](C2CCOCC2)C1 [(R)—N-(4-(Methoxyamino)-4-oxobutyl)-N,9-dimethyl-3-(tetrahydro-2H-pyran-4-yl)-2,3,4,9-tetrahydro-1H-carbazole-6-carboxamide]	0.291	104	
CC(C)NC(=O)CC[C@@H](CO)N(C)C(=O)c1ccc2c(c1)c1c(n2C)CC[C@@H](C2CCOCC2)C1 [(R)—N-((S)-1-Hydroxy-5-(isopropylamino)-5-oxopentan-2-yl)-N,9-dimethyl-3-(tetrahydro-2H-pyran-4-yl)-2,3,4,9-tetrahydro-1H-carbazole-6-carboxamide]	0.133	129	
CNC(=O)CC[C@@H](CO)N(C)C(=O)c1ccc2c(c1)c1c(n2C)CC[C@@H](C2CCOCC2)C1 [(R)—N-((S)-1-Hydroxy-5-(methylamino)-5-oxopentan-2-yl)-N,9-dimethyl-3-(tetrahydro-2H-pyran-4-yl)-2,3,4,9-tetrahydro-1H-carbazole-6-carboxamide]	0.101	124	
CN(C(=O)c1ccc2c(c1)c1c(n2C)CC[C@@H](C2CCOCC2)C1)[C@H](CO)CCC(=O)NC1COC1 [(R)—N-((S)-1-Hydroxy-5-(oxetan-3-ylamino)-5-oxopentan-2-yl)-N,9-dimethyl-3-(tetrahydro-2H-pyran-4-yl)-2,3,4,9-tetrahydro-1H-carbazole-6-carboxamide]	0.201	119	
CN(C(=O)c1ccc2c(c1)c1c(n2C)CC[C@@H](C2CCOCC2)C1)[C@H](CO)CCC(=O)NCC(F)F [(R)—N-((S)-5-(2,2-Difluoroethylamino)-1-hydroxy-5-oxopentan-2-yl)-N,9-dimethyl-3-(tetrahydro-2H-pyran-4-yl)-2,3,4,9-tetrahydro-1H-carbazole-6-carboxamide]	0.107	120	
CCN(CCCC(=O)NCCO)C(=O)c1ccc2c(c1)c1c(n2C)CC[C@@H](C2CCOCC2)C1 [(R)—N-Ethyl-N-(4-(2-hydroxyethylamino)-4-oxobutyl)-9-methyl-3-(tetrahydro-2H-pyran-4-yl)-2,3,4,9-tetrahydro-1H-carbazole-6-carboxamide]	0.031	113	
CNC(=O)CCCN(C)C(=O)c1ccc2c(c1)c1c(n2C)CCC(C2CCOCC2)C1 (centres unmarked) [N,9-dimethyl-N-[3-(methylcarbamoyl)propyl]-6-(oxan-4-yl)-5,6,7,8-tetrahydrocarbazole-3-carboxamide]		102	
CN(CC(=O)NC1CC1)C(=O)c1ccc2c(c1)c1c(n2C)CCC(C2CCOCC2)C1 (centres unmarked) [N-(cyclopropylcarbamoylmethyl)-N,9-dimethyl-6-(oxan-4-yl)-5,6,7,8-tetrahydrocarbazole-3-carboxamide]		121	121
CCN(CC(=O)NC1CC1)C(=O)c1ccc2c(c1)c1c(n2C)CCC(C2CCOCC2)C1 (centres unmarked) [N-(cyclopropylcarbamoylmethyl)-N-ethyl-9-methyl-6-(oxan-4-yl)-5,6,7,8-tetrahydrocarbazole-3-carboxamide]		124	
CN(CCCC(=O)NCCF)C(=O)c1ccc2c(c1)c1c(n2C)CCC(C2CCOCC2)C1 (centres unmarked) [N-[3-(2-fluoroethylcarbamoyl)propyl]-N,9-dimethyl-6-(oxan-4-yl)-5,6,7,8-tetrahydrocarbazole-3-carboxamide]		121	
Cn1c2c(c3cc(C(=O)N4CC[C@H](NC(=O)C5CC5)C4)ccc31)CC(C1CCOCC1)CC2 (stereo partly drawn) [N-[(3S)-1-[9-methyl-6-(oxan-4-yl)5,6,7,8-tetrahydrocarbazole-3-carbonyl]pyrrolidin-3-yl]cyclopropanecarboxamide]	1.15	116	
CCN(CC(=O)NCCO)C(=O)c1ccc2c(c1)c1c(n2S(=O)(=O)CC)CCC(C2CCOCC2)C1 (centres unmarked) [N-ethyl-9-ethylsulfonyl-N-(2-hydroxyethylcarbamoylmethyl)-6-(oxan-4-yl)-5,6,7,8-tetrahydrocarbazole-3-carboxamide]		111	111
CCN(CC(=O)NC1CCOCC1)C(=O)c1ccc2c(c1)c1c(n2C)CCC(C2CCOCC2)C1 (centres unmarked) [N-ethyl-9-methyl-6-(oxan-4-yl)-N-(oxan-4-ylcarbamoylmethyl)-5,6,7,8-tetrahydrocarbazole-3-carboxamide]	> 1.11	> 88	
CCN(CC(=O)NCCF)C(=O)c1ccc2c(c1)c1c(n2C)CCC(C2CCOCC2)C1 (centres unmarked) [N-ethyl-N-(2-fluoroethylcarbamoylmethyl)-9-methyl-6-(oxan-4-yl)-5,6,7,8-tetrahydrocarbazole-3-carboxamide]		108	
CCNC(=O)CN(CC)C(=O)c1ccc2c(c1)c1c(n2CC(C)(C)O)CCC(C2CCOCC2)C1 (centres unmarked) [N-ethyl-N-(ethylcarbamoylmethyl)-9-(2-hydroxy-2-methyl-propyl)-6-(oxan-4-yl)-5,6,7,8-tetrahydrocarbazole-3-carboxamide]	> 30	> 34	
CCNC(=O)CN(CC)C(=O)c1ccc2c(c1)c1c(n2CCO)CCC(C2CCOCC2)C1 (centres unmarked) [N-ethyl-N-(ethylcarbamoylmethyl)-9-(2-hydroxyethyl)-6-(oxan-4-yl)-5,6,7,8-tetrahydrocarbazole-3-carboxamide]	> 3.33	> 83	
CCNC(=O)CN(CC)C(=O)c1ccc2c(c1)c1c(n2CC(=O)NC)CCC(C2CCOCC2)C1 (centres unmarked) [N-ethyl-N-(ethylcarbamoylmethyl)-9-(methylcarbamoylmethyl)-6-(oxan-4-yl)-5,6,7,8-tetrahydrocarbazole-3-carboxamide]	> 30	> 9	
CCS(=O)(=O)n1c2c(c3cc(C(=O)N4CCC[C@@H](O)C4)ccc31)CC(C1CCOCC1)CC2 (stereo partly drawn) [[9-ethylsulfonyl-6-(oxan-4-yl)-5,6,7,8-tetrahydrocarbazol-3-yl]-[(3R)-3-hydroxy-1-piperidyl]methanone]	1.76	104	
CCS(=O)(=O)n1c2c(c3cc(C(=O)N4CC[C@@H](O)C4)ccc31)CC(C1CCOCC1)CC2 (stereo partly drawn) [[9-ethylsulfonyl-6-(oxan-4-yl)-5,6,7,8-tetrahydrocarbazol-3-yl]-[(3R)-3-hydroxypyrrolidin-1-yl]methanone]	> 3.16	> 89	
CCS(=O)(=O)n1c2c(c3cc(C(=O)N4CC[C@H](O)C4)ccc31)CC(C1CCOCC1)CC2 (stereo partly drawn) [[9-ethylsulfonyl-6-(oxan-4-yl)-5,6,7,8-tetrahydrocarbazol-3-yl]-[(3S)-3-hydroxypyrrolidin-1-yl]methanone]	4.56	105	

Source: patent US20090062251A1, “Novel Compounds 002” (ASTRAZENECA AB, priority 2007, published 2009)
